Laboratory results taken from US11464770B2, “Anticancer pharmaceutical composition” (NATIONAL CANCER CENTER, priority 2016, dated 2022).
Read-outs that look alike come from different tables or passages of the source.

Test system: lung cancer cell lines (e.g. NCI-H23, NCI-H1229)
Experiment: Cell based assay, cell viability (CellTiter-Glo), lung cancer cell lines
Settings: Homo sapiens, 72 hours treatment, CellTiter-Glo
How it was run: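 Cell lines seeded, cultured 24 hours, then exposed to compound at final 0 to 2 μM. After a further 72 hours, viability measured by ATP-detection luminescence (CellTiter-Glo).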

[1] = A549 cells, read-out: IC50, lung cancer cell line A549
[2] = DMS 114 cells, read-out: IC50, lung cancer cell line DMS 114
[3] = NCI-H23 cells, read-out: IC50, lung cancer cell line NCI-H23
[4] = NCI-H460 cells, read-out: IC50, lung cancer cell line NCI-H460
[5] = NCI-H522 cells, read-out: IC50, lung cancer cell line NCI-H522
[6] = NCI-H1299 cells, read-out: IC50, lung cancer cell line NCI-H1299
[7] = NCI-H1437 cells, read-out: IC50, lung cancer cell line NCI-H1437

Structure (SMILES) | IC50 [1] [nM] | IC50 [2] [nM] | IC50 (MRC-5 cells, read-out: IC50) [nM] | IC50 [3] [nM] | IC50 [4] [nM] | IC50 [5] [nM] | IC50 [6] [nM] | IC50 [7] [nM]
COC(=O)c1ccc(C[S+]([O-])c2[nH]c3c(Cl)ccc(Cl)c3c(=O)c2C(C)=O)o1 (stereo not shown) [Compound 89, methyl 5-(((3-acetyl-5,8-dichloro-4-oxo-1,4-dihydroquinolin-2-yl)sulfinyl)methyl)furan-2-carboxylate] | > 2000 | > 2000 | > 2000 | 1470 | > 2000 | > 2000 | > 2000 | > 10000
Cc1cc(C[S+]([O-])c2[nH]c3c(Br)ccc(Cl)c3c(=O)c2C(=O)C(C)C)no1 (stereo not shown) [Compound 95, 8-bromo-5-chloro-3-isobutyryl-2-(((5-methylisoxazol-3-yl)methyl)sulfinyl)quinolin-4(1H)-one] | 940 | > 2000 | 970 | 720 | 1400 | 1010 | 1060 | < 2000
